{"source": "ChEMBL document CHEMBL4627379", "about": "“Production of Antitubercular Depsipeptides via Biosynthetic Engineering of Cinnamoyl Units” (2020)"}
{"tested_on": "Mycobacterium tuberculosis", "assay": "Antitubercular activity against autoluminescent Mycobacterium tuberculosis H37Rv assessed as reduction in microbial growth by two-fold serial dilution method", "format": "functional", "units": {"MIC": "µM"}}
{"smiles": "C/C=C/C=C/c1ccccc1/C=C/C(=O)N[C@@H]1C(=O)N[C@@H](CO)C(=O)N[C@@H](Cc2c[nH]c3ccccc23)C(=O)N[C@H](CC(N)=O)C(=O)N[C@@H]([C@@H](O)c2ccccc2)C(=O)N2CCC[C@H]2C(=O)N[C@H](C(C)C)C(=O)NCC(=O)N[C@H](CC(C)C)C(=O)N[C@H](Cc2ccc(O)cc2)C(=O)O[C@@H]1C", "MIC": 2.3}
{"smiles": "Cc1ccccc1/C=C/C(=O)N[C@@H]1C(=O)N[C@@H](CO)C(=O)N[C@@H](Cc2c[nH]c3ccccc23)C(=O)N[C@H](CC(N)=O)C(=O)N[C@@H]([C@@H](O)c2ccccc2)C(=O)N2CCC[C@H]2C(=O)N[C@H](C(C)C)C(=O)NCC(=O)N[C@H](CC(C)C)C(=O)N[C@H](Cc2ccc(O)cc2)C(=O)O[C@@H]1C", "MIC": 14.8}
{"smiles": "CO[C@H]1/C=C/O[C@@]2(C)Oc3c(C)c(O)c4c(O)c(c(/C=N/N5CCN(C)CC5)c(O)c4c3C2=O)NC(=O)/C(C)=C\\C=C\\[C@H](C)[C@H](O)[C@@H](C)[C@@H](O)[C@@H](C)[C@H](OC(C)=O)[C@@H]1C", "note": "[RIFAMPIN]", "MIC": 0.06}
{"smiles": "C/C=C/[C@H](O)[C@H](O)c1ccccc1/C=C/C(=O)N[C@@H]1C(=O)N[C@@H](CO)C(=O)N[C@H](CC(C)C)C(=O)N[C@@H]([C@H](O)c2ccccc2)C(=O)N[C@@H](CO)C(=O)N[C@H]([C@@H](C)O)C(=O)N[C@H](CO)C(=O)N[C@H](c2ccc(O)cc2)C(=O)N[C@@H](C(C)C)C(=O)N[C@H](CC(C)C)C(=O)O[C@H]1C", "MIC": 1.9}
